These results are taken from PubChem BioAssay (NCI).

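Dose response: 5 concentrations. Exposure: 48 h. Format: 96-well plates. Endpoint: linear interpolation; highest concentration if not reached. Here, GI50 denotes the concentration required for 50% inhibition of growth. Definition used: TGI = concentration required for complete inhibition of growth.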 Where only a bound is given, the exact number is not on record here.

Common to all, as to assay: NCI-60 cell line screen, 48 h
Assay [1] concerns CAKI-1 renal.
For assay [2], the system named is CCRF-CEM leukemia.
Assay [3] concerns HCC-2998 colon.
Assay [4] concerns HT29 colon.
The test system of assay [5] is NCI-H522 lung.
Assay [6] has as its system PC-3 prostate.
For assay [7], the system named is SF-295 CNS.
The test system of assay [8] is SN12C renal.
Assay [9] concerns SW-620 colon.
The subject of assay [10] is HOP-62 NSCLC.

Turning to `CC(=O)c1c(O)c(C)c(O)c(Cc2c(O)c3c(c(C(=O)/C=C/c4ccccc4)c2O)OC(C)(C)C=C3)c1O`, the TGI in [1] was 9.07 µM; in assay [2], more than 100 µM; in assay [3], 11.1 µM; in assay [4] it was 13.1 µM; in assay [5], 11.5 µM; in [6], 5.18 µM. Also, the TGI in [7] worked out at 11.6 µM; in assay [8], 9.09 µM; in assay [9], 14.8 µM.
Take `COc1cccc(-c2nc3cc(NC(=O)c4ccc(Cl)c(C#N)c4)ccc3o2)c1`: the GI50 is 23.3 µM in assay [1]; more than 100 µM in assay [2]; 12.9 µM in assay [10]; 1.68 µM in assay [5]; 2.96 µM in [6]; 11.7 µM in assay [7]. Also, the values for the GI50 in [8] and in [9] were 3.1 µM and 4.11 µM, respectively. Further, the TGI is more than 100 µM in assay [1]; more than 100 µM in assay [2]; more than 100 µM in assay [10]; 4.54 µM in assay [5]; more than 100 µM in [6]; more than 100 µM in [7]. Also, the TGI in assay [8] and in assay [9] was more than 100 µM throughout.
Take `Clc1ccc(-c2cn3ccnc3c(-c3ccc(Cl)cc3)n2)cc1`: the GI50 in assay [1] is 4.23 µM; in assay [10], 31.4 µM; in [4] it was 12.5 µM; in assay [5], more than 100 µM; in assay [6], 19.6 µM; in [7] it was 11.1 µM. Moreover, the GI50 in assay [8] is 16.7 µM; in assay [9], 7.42 µM. Moreover, the TGI in assay [1] is 46 µM; in assay [10] it was more than 100 µM; in [4], more than 100 µM; in assay [5] it was more than 100 µM; in assay [6], more than 100 µM; in assay [7] it was 91.7 µM. Moreover, the TGI is 95.1 µM in [8] and more than 100 µM in assay [9].
On to `CCC1(O)C(=O)OCc2c1cc1n(c2=O)Cc2cc3ccccc3nc2-1` (centres undefined), for which the TGI in assay [1] was more than 31.9 µM; in [3], 11.2 µM; in [10] it was 0.319 µM; in assay [4], 0.394 µM; in assay [5], 3.89 µM; in assay [6], 23.9 µM. For the same compound, the TGI in assay [7] is 0.226 µM; in [9], more than 41.2 µM.
Take `CO/N=C(\COc1ccc2c(c1)[nH]c1ccccc12)c1ccc(OC)cc1`: the GI50 in assay [2] is more than 100 µM; in [3], more than 100 µM; in assay [10], 6.26 µM; in assay [4], 4.36 µM; in assay [5], 49.1 µM; in assay [6] it was 18.3 µM. The figures for the GI50 in [7], in [8] and in assay [9] were 13.6 µM, 57.9 µM and more than 100 µM, respectively. Besides, the TGI was more than 100 µM in assay [2]; more than 100 µM in [3]; 64 µM in [10]; more than 100 µM in assay [4]; more than 100 µM in assay [5]; more than 100 µM in assay [6]. Further, the TGI in [7] was 99.2 µM; in [8], more than 100 µM; in assay [9], more than 100 µM.
As to `c1ccc(C2ONC3=NCCN32)cc1` (centres undefined), the GI50 in assay [1] is 36.1 µM; in assay [2] it was 21.6 µM; in assay [3], 58.1 µM; in assay [10], 49.4 µM; in [4] it was 67.9 µM; in [5] it was 44.5 µM. Besides, the results for the GI50 in assay [6], in [7] and in assay [9] were 18.8 µM, 48.3 µM and 44.7 µM, respectively. The TGI was more than 100 µM in [1]; 53.4 µM in [2]; more than 100 µM in assay [3]; more than 100 µM in assay [10]; more than 100 µM in assay [4]; more than 100 µM in assay [5]. In addition, the TGI in assay [6] was 78.2 µM; in assay [7], more than 100 µM; in assay [9], more than 100 µM.
Regarding `CCSCCCSCCSCC`, the TGI in assay [2], in assay [3], in assay [10], in assay [4], in assay [5] and in [6] was more than 100 µM throughout. Also, the TGI in [7], in [8] and in assay [9] was more than 100 µM in each case.
Consider `N=C1C(O)C2(I)c3ccccc3N3C(=N)C(O)C4c5ccccc5N1C4C32` (centres undefined), for which the TGI was more than 100 µM in assay [1]; 18.6 µM in assay [2]; more than 100 µM in [10]; more than 100 µM in [4]; more than 100 µM in [5]; more than 100 µM in assay [6]. Moreover, the TGI in assay [7], in assay [8] and in assay [9] was more than 100 µM in each case.
Regarding `Cn1c(=O)nc2n(-c3ccc(O)cc3)c3ccccc3nc-2c1=O`, the TGI in assay [1], in assay [2], in assay [3], in assay [10], in assay [4] and in assay [5] was more than 100 µM each time. For the same compound, the TGI in assay [7], in assay [8] and in assay [9] was more than 100 µM each time.
As to `O=C1CC(CC(=O)C2CCCCC2=O)C(=O)N1` (centres undefined), the TGI in assay [1], in assay [2], in [3], in assay [10], in assay [4] and in assay [5] was more than 100 µM throughout. In addition, the TGI in assay [7], in assay [8] and in assay [9] was more than 100 µM throughout.
As for `Cc1c(OC(C)C(=O)O)ccc2c(-c3ccccc3)cc(=O)oc12` (centres undefined), the TGI in assay [1], in assay [2], in assay [3], in assay [10], in [4] and in [5] was more than 100 µM throughout. Besides, the TGI in assay [7], in assay [8] and in [9] was more than 100 µM each time.
Regarding `COC(=O)C1=CO[C@@H](OC2CC(CO)C(O)C(O)C2O)[C@@H]2[C@@H](C)[C@@H](OC(=O)/C=C/c3ccccc3)[C@@H](O)[C@H]12` (some centres undefined) (tested in a mixture with another compound), the TGI in [1], in assay [2], in assay [3], in assay [10], in assay [4] and in assay [5] was more than 100 µM throughout. The TGI in assay [7], in assay [8] and in assay [9] was more than 100 µM in each case.
